# Data taken from a melting point compilation (Tetko et al.).
row,Compound,melting point [°C]
1,CC(=O)N(c1ccc(C)cc1)c1nc(C=O)cs1,166 to 168
2,NS(=O)(=O)c1ccc2c(c1)CCN2,162 to 166
3,CCOC(=O)c1c(C)[nH]c(C(=O)O)c1C,204 to 206
4,O=C(O)c1cc(S(=O)(=O)Cl)ccc1Br,115 to 117
5,CC1CCN(c2ccc(NC(=O)CCC(=O)O)cc2)CC1,174 to 176
6,N#Cc1cc(Oc2ccc(CC(=O)O)cc2)ccn1,169 to 171
7,CC(C)(C)OC(=O)NCCC(=O)NC(N)=O,162 to 164
8,C=CC(=O)Nc1ccc(OCC)c(OC)c1,117 to 119
9,Nc1ccc(Sc2ccc(Cl)cc2)cc1,60 to 62
10,O=C(O)CSc1ccccc1Cl,115 to 117
11,CC(C)c1ccc(-c2ncc(CSc3nnc(N)[nH]3)s2)cc1,168 to 170
12,Nc1nnc(Cc2ccccc2)s1,170 to 179
13,CC(C)(C)C(=O)c1ccsc1N,101 to 103
14,COC(=O)N1CCCNC(=O)C1,134 to 136
15,COC(=O)C(=O)CC(=O)c1ccc(F)cc1,125 to 135
16,CSc1ccc2cc(CCl)c(Cl)nc2c1,151 to 153
17,Nc1c(Cl)cnn1C1CCN(Cc2ccccc2)C1 (stereo not given),106 to 108
18,O=C(O)c1ccc2c(=O)n(-c3ccccc3)c(S)nc2c1,368 to 370
19,COC(=O)c1ccc(-c2nc(CCl)cs2)cc1,108 to 110
20,O=C(O)C1(C(=O)NC2CC2)CC1,145 to 147
21,CC(=O)Nc1ccc(N)c(Br)c1,79 to 81
22,CS(=O)(=O)Cc1c(C(=O)O)oc2ccccc12,218 to 220
23,N#Cc1ccc(C(=O)NNC(=O)CCl)cc1,185 to 187
24,CN1C(=O)C(C(N)=O)=C(N)C12CCCC2,255 to 257
25,O=S(=O)(Cl)c1ccc(S(=O)(=O)NC2CC2)cc1,126 to 128

row,Compound,melting point [°C]
1,CC1CN(CC(C)C(=O)NN)CC(C)O1 (stereo not given),70 to 72
2,Cc1nnc(NC(=O)OCC(F)(F)F)s1,231 to 233
3,O=[N+]([O-])c1ccc(S(=O)(=O)Cl)cn1,81 to 83
4,O=S(=O)(c1cccc(C(F)(F)F)c1)N1CCNCC1,100 to 110
5,CC(=O)c1ccc(N)cc1C,83 to 85
6,O=C(O)C1CC1c1ccncc1 (stereo not given),228 to 230
7,CC(C)N1C2CCC1CC(O)C2 (stereo not given),90 to 92
8,O=c1[nH]c2ccsc2c(=O)o1,218 to 220
9,CC(Sc1ccccc1Cl)C(=O)O (stereo not given),50 to 52
10,N#Cc1cc(F)ccc1-n1ccc(N)n1,128 to 130
11,COc1ccc2[nH]c3c(c2c1)CC(C)CC3 (stereo not given),59 to 61
12,CCN(CC)S(=O)(=O)c1ccc(Cl)nc1,82 to 84
13,COCCOc1ccc(C(=O)O)cc1OC,149 to 151
14,N#Cc1cnc2ccccc2c1N,274 to 276
15,OCc1cn(-c2ccccc2)nc1-c1cccs1,115 to 117
16,Cc1cc(Cl)c2c(c1)C(=O)C(=O)N2,173 to 175
17,O=Cc1c[nH]nc1-c1cccnc1,208 to 210
18,CC(C)NCc1nc2ccccc2c(=O)[nH]1,145 to 147
19,O=C(O)CCN1C(=O)C(=O)c2ccc(F)cc21,179 to 181
20,COc1ccc(Cc2nc3sc4c(c3c(=O)[nH]2)CCC4)cc1OC,237 to 239
21,COC(=O)c1sc(-c2cccc(Cl)c2)cc1N,100 to 102
22,Cc1ccc(OCC(=O)O)c(C=O)c1,144 to 146
23,O=Cc1ccc(-c2ccc(Cl)c(C(F)(F)F)c2)o1,74 to 76
24,O=C(O)CCn1cccc1,62 to 64
25,CNS(=O)(=O)c1ccc(S(N)(=O)=O)cc1,154 to 156

row,Compound,melting point [°C]
1,NNC(=O)c1ccc(S(=O)(=O)N2CCCC2)cc1,199 to 201
2,Cc1cc2ncn(C(C)c3ccccc3)c2cc1C (stereo not given),169 to 171
3,CC(O)Cc1ccccc1S(C)(=O)=O (stereo not given),55 to 57
4,O=C(CCl)NCCOc1ccc2c(c1)OCO2,75 to 77
5,N#Cc1cnn(-c2cccc(Cl)c2)c1,139 to 141
6,CC(C)n1[nH]c(-c2ccc(F)cc2)cc1=O,156 to 158
7,CN(C(=O)c1ccco1)c1ccccc1C(=O)O,189 to 191
8,Cc1cc(Cl)c(CCl)c(Cl)n1,45 to 47
9,CC(O)c1c(Cl)nc2sccn12 (stereo not given),107 to 109
10,CCOC(=O)COc1ccc(C#N)cc1OC,69 to 71
11,CNC(=O)NCCC(=O)O,129 to 131
12,O=C1OC(O)C(Cl)=C1Cl (stereo not given),179 to 182
13,CCC(C)n1ncc2c(C(=O)O)cc(C)nc21 (stereo not given),148 to 150
14,COC(C)C(N)=NO (stereo not given),118 to 120
15,CC(C)(C)OC(=O)N1CCC(O)(c2ccccc2CO)CC1,106 to 108
16,Nc1ccc(S(=O)(=O)C(F)F)cc1,102 to 104
17,NS(=O)(=O)c1ccc(OCc2ccccc2Cl)cc1,179 to 181
18,O=C(O)c1cc(F)cc(S(=O)(=O)Cl)c1,136 to 138
19,Nc1ccc2c(c1)OC1(CCCCC1)O2,65 to 67
20,O=C(O)c1c[nH]cc1-c1ccc([N+](=O)[O-])cc1,209 to 211
21,NS(=O)(=O)c1ccc(F)cc1C(=O)O,218 to 220
22,Cn1cc(C(=O)NCC2CCNCC2)cn1,175 to 177
23,O=C(O)c1nnc(S)[nH]c1=O,229 to 231
24,CCc1cccc2c(C3=CCNCC3)c[nH]c12,190 to 192
25,COc1cc(C(=O)O)ccc1OCC(N)=O,257 to 259

row,Compound,melting point [°C]
1,CC1CC1C(=O)NCCC(=O)O (stereo not given),94 to 96
2,NC(=O)c1cn(CC(=O)O)c2ccccc12,239 to 241
3,Clc1ccnc2cc(Br)ccc12,99 to 101
4,COC(=O)c1cc(N2CCOCC2)ccc1N,106 to 108
5,NC1(C(=O)O)CCS(=O)(=O)CC1,294 to 296
6,NS(=O)(=O)c1ccc2c(c1)CCCN2,161 to 163
7,O=Cc1ccc(OCC(=O)Nc2ccccc2)cc1,125 to 127
8,NC(=O)c1cc(=NCC2CCCO2)cc[nH]1 (stereo not given),123 to 125
9,Cc1ccc(OCc2cccc(C(=O)O)c2)cn1,166 to 168
10,Cc1ccc(SCC(=O)Nc2ccccc2C)c(N)c1,115 to 117
11,CS(=O)c1nnc[nH]1 (stereo not given),119 to 121
12,Cc1cccc(Oc2ccc(Cl)cc2N)c1,93 to 97
13,COc1cc(N)c(C(=O)O)cc1OC(F)F,168 to 170
14,O=C(O)c1cc(C2CC2)[nH]n1,193 to 195
15,Cc1nnc(-c2ccc(Br)c(F)c2)o1,138 to 140
16,Cc1cc(C=O)c(C)n1C(C)C,45 to 47
17,CC(Cl)C(=O)NC1(C#N)CCCCC1 (stereo not given),100 to 102
18,NC1CCC(c2nc(-c3ccccc3)n[nH]2)CC1 (stereo not given),163 to 165
19,O=C(CCCl)N1CCOCC1,46 to 48
20,COc1ccc(Nc2ncccc2N)cc1,164 to 166
21,CS(=O)(=O)c1cccnc1,54 to 56
22,N#Cc1ccc(Cl)cc1S(=O)(=O)Cl,79 to 81
23,O=C(O)CCc1cscn1,156 to 158
24,N#CCC(=O)Nc1ccccn1,160 to 162
25,Cc1ccc(C(C)C)cc1OC(C)C(=O)O (stereo not given),80 to 82

row,Compound,melting point [°C]
1,Nc1cccc(N2CCN(CCc3ccccc3)CC2)c1,96 to 98
2,CC(=O)c1cc(CCC(=O)O)oc1C,90 to 95
3,Nc1ccc(Oc2cnccn2)cc1,138 to 140
4,CCOc1cccc(S(N)(=O)=O)c1,129 to 131
5,Cc1ccc(CNC(=O)n2ccnc2)cc1,132 to 134
6,Cn1c(S)nnc1C1CCS(=O)(=O)C1 (stereo not given),151 to 153
7,c1ccc2c(c1)CC(n1ccnc1)CN2 (stereo not given),110 to 112
8,O=C(CCl)c1ccc(I)cc1,127 to 129
9,Brc1ccc(CN2CCNCC2)s1,50 to 52
10,CCC(O)(C(N)=O)c1ccc(Br)cc1 (stereo not given),146 to 148
11,CCOC(=O)c1sc2[nH]cnc(=O)c2c1C,233 to 235
12,N#Cc1cc2c([nH]c1=O)CCN(Cc1ccccc1)C2,218 to 220
13,CC(C)c1ccc(S(=O)(=O)NCCC(=O)O)cc1,195 to 205
14,CCOC(=O)N1CCC(NC(N)=O)CC1,203 to 205
15,NC(=O)c1ccc(N2CCNCC2)nc1,195 to 197
16,C#Cc1ccc(C(=O)O)nc1,181 to 183
17,Cc1ccc(-c2cc(C(=O)O)[nH]n2)cc1,251 to 253
18,COc1cc(CCl)ccc1[N+](=O)[O-],49 to 51
19,NC(=O)c1c[nH]nn1,256 to 258
20,Nc1cccc(-c2cn(Cc3ccccc3)nn2)c1,139 to 141
21,CN1CCC(C(=O)O)CC1=O (stereo not given),163 to 165
22,O=C(Nc1nc(-c2ccc(Cl)c(Cl)c2)cs1)C(Cl)c1ccccc1 (stereo not given),128 to 130
23,Nc1cc(-c2cccc(F)c2F)n[nH]1,117 to 119
24,Cc1cc(C(=O)O)c(C)n1-c1ccc(F)cc1,232 to 234
25,Cn1ncc2c1CCCC2=O,89 to 91

row,Compound,melting point [°C]
1,Cc1nc(-c2ccc(Cl)cc2)sc1C(C)O (stereo not given),119 to 121
2,O=C(O)Cn1cccnc1=O,211 to 213
3,NC(=S)CC(=O)NCc1ccccc1,112 to 116
4,Cc1c(C(=O)O)oc2c1ccc1ccccc12,206 to 208
5,CC(C)(C)OC(=O)Nc1cc(Br)ccc1C(=O)O,179 to 181
6,Nc1cccc(S(=O)(=O)N2CCCCCC2)c1,73 to 77
7,Nc1cc(S(=O)(=O)N2CCOCC2)ccc1N1CCOCC1,210 to 212
8,COc1ccc(C2C(C(=O)O)CC(=O)N2C)cc1 (stereo not given),183 to 185
9,CC(Oc1ccccc1C(F)(F)F)C(=O)O (stereo not given),145 to 147
10,O=Cc1ccccc1OCC(=O)NCC1CC1,93 to 95
11,CC1(c2ccccc2Br)NC(=O)NC1=O (stereo not given),219 to 221
12,Cc1ccc(Oc2ccc(N)cc2)cc1,118 to 122
13,Cc1ccc(C2OCCCC2C(=O)O)cc1 (stereo not given),126 to 128
14,CCOCCCNc1nnc(S)s1,63 to 65
15,CCCCCCc1nc(S)c2c(=O)n(C)c(=O)n(CCC)c2n1,172 to 174
16,N#CCc1cccc(C#N)c1,78 to 80
17,OCCNc1cccnn1,77 to 79
18,O=C1CCC(c2ccccc2)CCN1 (stereo not given),194 to 196
19,Nc1nc(-c2ccc3c(c2)CC(=O)N3)cs1,249 to 251
20,CCOC(=O)C1CCCNC1=O (stereo not given),80 to 82
